Structures are written as SMILES.

In experiment [1] the target is T1, thyroid peroxidase (TPO), rat thyroid microsomes (Rattus norvegicus, UniProt P14650).
T1 sequence (P14650 32-914): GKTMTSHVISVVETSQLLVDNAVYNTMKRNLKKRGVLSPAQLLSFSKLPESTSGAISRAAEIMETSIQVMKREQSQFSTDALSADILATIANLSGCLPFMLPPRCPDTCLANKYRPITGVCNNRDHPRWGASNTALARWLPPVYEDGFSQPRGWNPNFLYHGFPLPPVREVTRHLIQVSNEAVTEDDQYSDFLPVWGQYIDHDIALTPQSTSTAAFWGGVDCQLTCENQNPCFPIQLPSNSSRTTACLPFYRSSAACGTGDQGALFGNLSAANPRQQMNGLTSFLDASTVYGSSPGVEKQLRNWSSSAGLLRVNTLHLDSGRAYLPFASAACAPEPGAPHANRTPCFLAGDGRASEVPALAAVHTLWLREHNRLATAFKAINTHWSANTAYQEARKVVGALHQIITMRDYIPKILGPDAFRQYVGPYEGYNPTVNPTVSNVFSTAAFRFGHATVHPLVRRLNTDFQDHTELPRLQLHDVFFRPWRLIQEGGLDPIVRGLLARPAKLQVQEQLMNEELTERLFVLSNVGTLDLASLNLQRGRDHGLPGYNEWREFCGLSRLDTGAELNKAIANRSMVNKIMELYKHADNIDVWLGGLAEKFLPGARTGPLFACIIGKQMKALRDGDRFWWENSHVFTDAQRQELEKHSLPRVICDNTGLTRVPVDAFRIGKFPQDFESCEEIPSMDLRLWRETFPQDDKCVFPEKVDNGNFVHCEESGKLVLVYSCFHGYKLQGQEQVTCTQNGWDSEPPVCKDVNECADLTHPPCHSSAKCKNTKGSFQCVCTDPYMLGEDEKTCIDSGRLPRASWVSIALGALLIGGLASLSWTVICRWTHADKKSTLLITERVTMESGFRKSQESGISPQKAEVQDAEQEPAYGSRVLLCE
Briefly: Battery of TPO assays, summary of IC50 across reactions. In kind it is biochemical.

The target in experiment [2] is T1, thyroid peroxidase (TPO), rat thyroid microsomes. Briefly: TPO activity assay, MIT to DIT monoiodination, LC-MS/MS. The conditions noted are these: result in words. In kind it is biochemical.

As a reminder, the IC50 is the concentration that inhibits the measured activity by half. A higher IC50 goes with a need for much substance. Turning to `O=c1c(-c2ccc(O)cc2)coc2cc(O)ccc12` [DZN, Daidzein], in experiment [1], the IC50 was 19.7 to 57.3 µM. Moreover, the “Effect on MIT to DIT iodination” value in experiment [2] was “no adverse effects”.

(Values after publication PMC8320612 (Current Research in Toxicology, 2021).)
